Experimental data: patent US10154992B2, “Compounds and methods for treating HIV infection” (THE REGENTS OF THE UNIVERSITY OF CALIFORNIA, priority 2016, dated 2018)
Like-named read-outs stand apart in the source and are kept apart here.

Legend:
Assay type in all cases: cell-based
[1] = MTT cell viability run in parallel with the Tat-hybrid assay; settings: human, Tat-hybrid reporter cell lines (HeLa); Table 5; read-out: Tat hybrid TC50
Method: (§1) Cells were counted and plated into white 384-well or 96-well cell-culture treated assay plates and compounds were added. After 48 hours, the cells were prepared for luminescence assays that were performed on a plate reader (Tecan Evolution or MD Analyst). The cytotoxicity of each compound was determined in parallel via MTT-based cell viability assays.
(§2) Tat hybrid reporter assay. […] Previously characterized thienopyridines and diaminoacridine were used as controls. Cells were counted and plated into white 384-well cell-culture treated assay plates and compounds were added. After 48 hours, the cells were prepared for lumincescence assays that were performed on a plate reader (Tecan Evolution or MD Analyst). The cytotoxicity of each compound was determined in parallel via MTT-based cell viability assays. […]

[2] = tested on: HIV-1 provirus in U1 cells; assay: U1 activation (latency) assay, p24 ELISA
Method: (§3) U1 activation assay. U1 cells obtained from the AIDS Research and Reference Reagent Program were maintained under standard culture conditions in RPMI 1640 supplemented with 10% fetal bovine serum (heat inactivated), 2 mM L-glutamine, 100U/mL penicillin and 100 μg/mL streptomycin. U1 cells contain an integrated copy of a phorbol ester inducible HIV-1 provirus and addition of phytohemagglutinin (PHA) to the cell culture was used to induce virus production. On the day of the assay, the U1 cells were activated with PHA and 250,000 cells were plated in 96-well plates. Test compounds were diluted in media and applied to the cells at final concentrations from 1 to 10,000 nM. Cultures were incubated for 3 days and supernatants harvested. Cell-free virus production was measured by p24 ELISA on culture supernatant. Compound toxicity was determined by MTT cell-viability assay in parallel assays.

[3] = MTT cell viability in parallel with the U1 assay; settings: human, U1 cells, read-out: U1 TC50
Method: as §3

[4] = tested on: Tat-hybrid reporter cell lines (HeLa); assay: MTT cell viability run in parallel with the Tat-hybrid assay; settings: Table 6; at 50,000 nM
Method: as §1, §2

[5] = Human immunodeficiency virus 1, Table 5, read-out: U1 IC50
[6] = Human immunodeficiency virus 1, read-out: U1 cell IC50 (nM)
[7] = Human immunodeficiency virus 1, Table 2, read-out: U1 cell IC50

| SMILES | CC50 at 48 h [1] [µM] | IC50 [2, 5] [nM] | CC50 at 3 days ([3]; Table 5) [µM] | further results |
| --- | --- | --- | --- | --- |
| COc1ccccc1-c1cncc2sc(C(N)=O)c(N)c12 | > 40 | 100 to 500 | > 40 |  |
| NC(=O)c1sc2cncc(-c3ccc4c(c3)CCO4)c2c1N [drawing 151] | < 40 | < 100 | > 40 |  |
| NC(=O)c1sc2cncc(N3CCN(C=O)CC3)c2c1N | < 40 | > 500 | > 40 |  |
| NC(=O)c1sc2cncc(-c3ccc4c(c3)OCCO4)c2c1N | < 40 | 100 to 500 | > 40 |  |
| N#Cc1ccc(-c2cncc3sc(C(N)=O)cc23)cc1F [drawing 143] | > 40 | 100 to 500 |  |  |
| NC(=O)c1sc2cncc(N3CCc4sccc4C3)c2c1N | > 40 | < 100 | < 40 |  |
| COc1ccc(-c2cncc3sc(C(N)=O)c(N)c23)cc1 [drawing 136] | < 40 | < 100 | > 40 |  |
| NC(=O)c1cc2c(-c3ccc4c(c3)OCCO4)cncc2s1 | < 40 | < 100 | < 40 |  |
| CCOc1ncccc1-c1cncc2sc(C(N)=O)c(N)c12 | > 40 | 100 to 500 | > 40 |  |
| NC(=O)c1cc2c(-c3ccccc3OC(F)(F)F)cncc2s1 | > 40 | > 500 | < 40 |  |
| NC(=O)c1cc2c(-c3cc4ccccc4o3)cncc2s1 | > 40 | > 500 | < 40 |  |
| NC(=O)c1sc2cncc(-c3cccc4ccccc34)c2c1N | > 40 | < 100 | < 40 |  |
| NC(=O)c1cc2c(-c3ccc4c(c3)OCO4)cncc2s1 [drawing 137] | < 40 | < 100 | < 40 |  |
| NC(=O)c1sc2cncc(N3CCC(C(N)=O)CC3)c2c1N [drawing 158] | < 40 | 100 to 500 | > 40 |  |
| NC(=O)c1sc2cncc(-c3ccoc3)c2c1N | > 40 | 100 to 500 | < 40 |  |
| NC(=O)c1sc2cncc(N3CCC4(CC3)OCCO4)c2c1N [drawing 161] | < 40 | 100 to 500 | > 40 |  |
| CN(C)c1cncc2sc(C(N)=O)c(N)c12 | < 40 | 100 to 500 | > 40 |  |
| Cc1noc(C2CCCN(c3cncc4sc(C(N)=O)c(N)c34)C2)n1 (stereo not drawn) [Compound 2k, 3-amino-4-[3-(3-methyl-1,2,4-oxadiazol-5-yl)piperidin-1-yl]thieno[2,3-c]pyridine-2-carboxamide] |  |  |  | IC50 [2, 6]: > 500 nM |
| NC(=O)c1cc2c(-c3cccc(-c4ccccc4)c3)cncc2s1 [Compound 4j, 4-(3-phenylphenyl)thieno[2,3-c]pyridine-2-carboxamide] |  |  |  | IC50 [2, 7]: 100 to 500 nM |
| CN(C)C(=O)c1ccc(-c2cncc3sc(C(N)=O)c(N)c23)cc1 | < 40 | 100 to 500 | > 40 |  |
| NC(=O)c1cc2c(-c3ccc(Oc4ccccc4)cc3)cncc2s1 | < 40 | 100 to 500 |  |  |
| NC(=O)c1cc2c(N3CCCCC3)cncc2s1 | > 40 | 100 to 500 | < 40 |  |
| NC(=O)c1sc2cncc(N3CCCC3)c2c1N |  | 100 to 500 | > 40 |  |
| NC(=O)c1cc2c(N3CCOCC3)cncc2s1 | > 40 | 100 to 500 | < 40 |  |

| SMILES | CC50 at 48 h [1] [µM] | IC50 [2, 5] [nM] | CC50 at 3 days ([3]; Table 5) [µM] | further results |
| --- | --- | --- | --- | --- |
| NC(=O)c1cc2c(-c3cccc(-c4ccccc4)c3)cncc2s1 [drawing 145] | > 40 | 100 to 500 | < 40 |  |
| NC(=O)c1sc2cncc(N3CCCC(COc4ccccc4F)C3)c2c1N (stereo not drawn) | < 40 | > 500 | < 40 |  |
| CNC(=O)c1ccc(-c2cncc3sc(C(N)=O)c(N)c23)cc1 | < 40 | < 100 | > 40 |  |
| NC(=O)c1sc2cncc(N3CCC(Oc4ccccc4)CC3)c2c1N [drawing 139] | > 40 | < 100 | < 40 |  |
| NC(=O)c1sc2cncc(-c3ccc4c(c3)CCO4)c2c1N [Compound 3e, 3-amino-4-(2,3-dihydro-1-benzofuran-5-yl)thieno[2,3-c]pyridine-2-carboxamide] |  |  |  | IC50 [2, 7]: < 100 nM |
| COc1ccc(-c2cncc3sc(C(N)=O)c(N)c23)cc1 [Compound 3a, 3-amino-4-(4-methoxyphenyl)thieno[2,3-c]pyridine-2-carboxamide] |  |  |  | IC50 [2, 7]: < 100 nM |
| CCOc1ccc(-c2cncc3sc(C(N)=O)cc23)cc1 | < 40 | < 100 | < 40 |  |
| CN(C)c1cccc(-c2cncc3sc(C(N)=O)c(N)c23)c1 | < 40 | 100 to 500 | > 40 |  |
| COc1ncc(-c2cncc3sc(C(N)=O)cc23)c(OC)n1 | > 40 | > 500 | > 40 |  |
| NC(=O)c1sc2cncc(N3CCC(F)(F)CC3)c2c1N [drawing 159] | < 40 | 100 to 500 | > 40 |  |
| Cc1ccc(-c2c3c(nc4sc(C(N)=O)c(N)c24)CCC3)cc1 |  |  |  | Tat hybrid cell viability at 50,000 nM [4]: X (X = >60%); IC50 ([2]; Human immunodeficiency virus 1, Table 6, read-out: U1 IC50): > 500 nM; CC50 at 3 days ([3]; Table 6): < 40 µM |
| NC(=O)c1sc2cncc(-c3ccccc3)c2c1N |  | 100 to 500 | > 40 |  |
| NC(=O)c1sc2cncc(N3CCC(F)(F)CC3)c2c1N [Compound 2h, 3-amino-4-(4,4-difluoropiperidin-1-yl)thieno[2,3-c]pyridine-2-carboxamide] |  |  |  | IC50 [2, 6]: 100 to 500 nM |
| NC(=O)c1sc2cncc(N3CCc4ccccc4C3)c2c1N | < 40 | < 100 | < 40 |  |
| CN(C)c1ccc(-c2cncc3sc(C(N)=O)c(N)c23)cc1 | < 40 | < 100 | > 40 |  |
| NC(=O)c1sc2nccc(N3CCc4ccccc4C3)c2c1N [Compound 2i, 3-amino-4-(1,2,3,4-tetrahydroisoquinolin-2-yl)thieno[2,3-b]pyridine-2-carboxamide] |  |  |  | IC50 [2, 6]: < 100 nM |
| N#Cc1ccccc1-c1cncc2sc(C(N)=O)cc12 [drawing 164] | > 40 | > 500 | > 40 |  |
| NC(=O)c1sc2cncc(-c3ccc4cc[nH]c4c3)c2c1N | > 40 | 100 to 500 | > 40 |  |
| NC(=O)c1sc2cncc(N3CCC4(CC3)OCCO4)c2c1N [Compound 2g, 3-amino-4-{1,4-dioxa-8-azaspiro[4.5]decan-8-yl}thieno[2,3-c]pyridine-2-carboxamide] |  |  |  | IC50 [2, 6]: 100 to 500 nM |
| COc1cc2c(cc1OC)CN(c1cncc3sc(C(N)=O)c(N)c13)CC2 | < 40 | < 100 | < 40 |  |
| CN(C)c1ccnc2sc(C(N)=O)c(N)c12 [drawing 152] | > 40 | > 500 | > 40 |  |
| Cc1noc(C2CCCN(c3cncc4sc(C(N)=O)c(N)c34)C2)n1 (stereo not drawn) [drawing 169] | < 40 | > 500 | > 40 |  |
| NC(=O)c1sc2cncc(-c3ccc4c(c3)OCO4)c2c1N [drawing 157] | < 40 | 100 to 500 | > 40 |  |
